Test results reported in patent US20090131313A1, “LKKTET AND/OR LKKTNT PEPTIDE COMPOSITIONS AND METHODS FOR TREATING OR PREVENTING TISSUE DETERIORATION, INJURY OR DAMAGE” (REGENERX BIOPHARMACEUTICALS, INC., priority 2005, published 2009).

What was measured:
[1] = system: Human corneal epithelial cells; test: annexin-based cell death (apoptosis) assay
Experimental: (§1) Human corneal epithelial cells at approximately 80% confluence were treated with 0%, 0.001%, 0.01%, or 0.1% BAK for 15 minutes. After 3 and 24 hours of recovery in culture medium, cell proliferation was measured using a calorimetric BrdU incorporation assay. Apoptosis was measured using a calorimetric annexin-based cell death assay. […] To further assess the ability of Tb4 to prevent apoptosis, corneal epithelial cells were treated with 0.01% BAK±Tβ4 over a 5 day time course.

[2] = system: Human corneal epithelial cells; test: BrdU incorporation cell proliferation assay; type: cell-based; conditions: 1 mcg/ml Tβ4, 3 and 24 hour time points
Experimental: as §1

Substance	apoptosis of BAK-treated cells in the presence of Tβ4 ([1]; 1 mcg/ml Tβ4, BAK-treated cells, 3 and 24 hour time points)	apoptosis compared to cells cultured in medium alone ([1]; Tβ4-treated cells, 5 days in culture)	cell proliferation of BAK-treated cells in the presence of Tβ4 [2]	corneal epithelial cell apoptosis compared to control ([1]; 0.001%, 0.01% or 0.1% BAK for 15 minutes, 3 and 24 hours recovery)
Thymosin beta 4 (SDKPDMAEIEKFDKSKLKKTETQEKNPLPSKETIEQEKQAGES; Thymosin beta-4; UniProt P62328 2-44, looked up) [Tβ4]	not inhibited	decreased apoptosis	not promoted	
benzalkonium chloride [BAK, reference compound]				increased
